{"source": "patent US10758468B2", "about": "“Solubilizer for cosmetic preparations” (Symrise AG, priority 2010, dated 2020)", "assay": "Assessment of turbidity (transparency) of compositions at production and after 3 months storage", "conditions": "water to 100; for Assessment of turbidity: Storage at 5° C. / Assessment of turbidity: Storage at 40° C.: after 3 months", "key": {"[1]": {"conditions": "0.10 wt. % bisabolol, 2.00 Solubilizer U.53787M, 0.50 pentane-1,2-diol"}, "[2]": {"conditions": "0.10 wt. % bisabolol, 2.00 Solubilizer U.53787M, 1.00 1,2-propylene glycol"}, "[3]": {"conditions": "0.10 wt. % bisabolol, 2.00 Solubilizer U.53787M, 2.50 pentane-1,2-diol"}, "[4]": {"conditions": "0.10 wt. % bisabolol, 2.00 Solubilizer U.53787M, 3.00 1,2-propylene glycol"}, "[5]": {"conditions": "0.10 wt. % bisabolol, 2.00 Solubilizer U.53787M, 4.00 glycerol"}, "[6]": {"conditions": "0.20 wt. % bisabolol, 2.00 Solubilizer A, 5.00 glycerol"}, "[7]": {"conditions": "0.40 wt. % menthyl lactate, 2.00 Solubilizer U.53787M, 5.00 glycerol"}, "[8]": {"conditions": "0.40 wt. % menthyl lactate, 2.00 Solubilizer U.53787M, 5.00 pentane-1,2-diol"}, "[9]": {"conditions": "0.50 wt. % menthyl lactate, 2.00 Solubilizer B, 5.00 glycerol"}}, "procedure": "The transparency (clarity) of the compositions was determined after 3 months at the constant storage temperature stated in each case."}
{"smiles": "CC(C)=CCC[C@](C)(O)C1CC=C(C)CC1", "note": "(stereo partly shown) [Bisabolol]", "values": [{"measurement": "Assessment of turbidity: Production at 25°", "setting": "[1]", "value": "clear"}, {"measurement": "Assessment of turbidity: Production at 25°", "setting": "[2]", "value": "clear"}, {"measurement": "Assessment of turbidity: Production at 25°", "setting": "[3]", "value": "clear"}, {"measurement": "Assessment of turbidity: Production at 25°", "setting": "[4]", "value": "clear"}, {"measurement": "Assessment of turbidity: Production at 25°", "setting": "[5]", "value": "clear"}, {"measurement": "Assessment of turbidity: Production at 25°", "setting": "[6]", "value": "clear"}, {"measurement": "Assessment of turbidity: Storage at 5° C.", "setting": "[1]", "value": "clear"}, {"measurement": "Assessment of turbidity: Storage at 40° C.", "setting": "[1]", "value": "clear"}, {"measurement": "Assessment of turbidity: Storage at 5° C.", "setting": "[2]", "value": "clear"}, {"measurement": "Assessment of turbidity: Storage at 40° C.", "setting": "[2]", "value": "clear"}, {"measurement": "Assessment of turbidity: Storage at 5° C.", "setting": "[3]", "value": "clear"}, {"measurement": "Assessment of turbidity: Storage at 40° C.", "setting": "[3]", "value": "clear"}, {"measurement": "Assessment of turbidity: Storage at 5° C.", "setting": "[4]", "value": "clear"}, {"measurement": "Assessment of turbidity: Storage at 40° C.", "setting": "[4]", "value": "clear"}, {"measurement": "Assessment of turbidity: Storage at 5° C.", "setting": "[5]", "value": "clear"}, {"measurement": "Assessment of turbidity: Storage at 40° C.", "setting": "[5]", "value": "clear"}, {"measurement": "Assessment of turbidity: Storage at 5° C.", "setting": "[6]", "value": "clear"}, {"measurement": "Assessment of turbidity: Storage at 40° C.", "setting": "[6]", "value": "clear"}]}
{"smiles": "CC(C)(C)C(=O)C(Oc1ccc(Cl)cc1)n1ccnc1", "note": "(stereo not shown) [Crinipan® AD, climbazole]", "values": [{"measurement": "Amount of organic substance incorporated with the composition remaining clear and stable", "setting": "framework formulation: 2.00 wt. % Solubilizer U.53787M, 5.00 glycerol, production at 25°, storage 3 months at 5° C. and 40° C.", "value": 0.10, "unit": "wt. %"}]}
{"smiles": "CC1CCC(C(C)C)C(OC(=O)C(C)O)C1", "note": "(stereo not shown) [Frescolat ® ML, menthyl lactate]", "values": [{"measurement": "Assessment of turbidity: Production at 25°", "setting": "[7]", "value": "clear"}, {"measurement": "Assessment of turbidity: Production at 25°", "setting": "[8]", "value": "clear"}, {"measurement": "Assessment of turbidity: Production at 25°", "setting": "[9]", "value": "clear"}, {"measurement": "Assessment of turbidity: Storage at 5° C.", "setting": "[7]", "value": "clear"}, {"measurement": "Assessment of turbidity: Storage at 40° C.", "setting": "[7]", "value": "clear"}, {"measurement": "Assessment of turbidity: Storage at 5° C.", "setting": "[8]", "value": "clear"}, {"measurement": "Assessment of turbidity: Storage at 40° C.", "setting": "[8]", "value": "clear"}, {"measurement": "Assessment of turbidity: Storage at 5° C.", "setting": "[9]", "value": "clear"}, {"measurement": "Assessment of turbidity: Storage at 40° C.", "setting": "[9]", "value": "clear"}]}
